We go through two molecules from patent publication US20090069180A1 (priority 2006, published 2009).

For one series, the system named is Pyricularia oryzae. The format is cell-based. Conditions: 125 ppm, microtiter plate, absorption at 405 nm on day 7 after inoculation, relative to active compound-free control.

Broadly, the melting point is the temperature of the solid-liquid transition. Turning to `CC1CCCN1c1nc(C#N)nc(Cl)c1/C(Br)=C(\Br)[Si](C)(C)C` (stereo not drawn) [C-1, 4-Chloro-2-cyano-5-((E)-1,2-dibromo-2-trimethylsilylvinyl)-6-(2-methylpyrrolidin-1-yl)-pyrimidine], the melting point fell in the range of 166 to 168 °C. Moreover, the relative pathogen growth in the series with Pyricularia oryzae is 0%.

In turn, `CONC(=N)c1nc(Cl)c(/C(Br)=C(/Cl)Br)c(N2CCCC2C)n1` (stereo not drawn) [C-4, N-Methoxy-4-chlor-5-((E)-2-chloro-1,2-dibromovinyl)-6-(2-methyl-pyrrolidin-1-yl)-2-pyrimidinecarboximidamide] came in with a relative pathogen growth in the series on Pyricularia oryzae of 0%.
